Literature values, collected in US5741892A, “Pentapeptides as antitumor agents” (Basf Aktiengesellschaft, priority 1996, dated 1998).

How the values were obtained:
[1] = test system: four different human lymphoma cell lines
[2] = test system: P388 lymphocytic leukemia (PS system) cell line
[3] = synthetic Dolastatin 10

Substance	inhibition of tubulin polymerization (tubulin)	inhibition of growth of lymphoma cell lines [1]	inhibition of cell growth [2]	solubility in aqueous systems [3]
Dolastatin 15	effectively inhibit	effectively inhibit	inhibits the growth	–
Dolastatin 10	effectively inhibit	effectively inhibit	–	poor solubility in aqueous systems
